{"source": "patent US20100273656A1", "about": "“COMPOSITION AND METHOD FOR SELECTIVE HERBICIDE” (priority 2002, published 2010)", "key": {"[1]": {"test_system": "hairy cat's ear (Hypochoeris radicata)", "assay": "Example 13 field test, hairy cat's ear", "format": "in vivo", "experimental": "(§1) Killex® (Green Cross, Ontario, Canada) is a commonly used selective lawn herbicide and was included in several field tests as a standard. Killex contains 2,4-D (9.5%), mecoprop (5%) and dicamba (0.9%). The product was diluted 6 ml into 1 L of water solution and applied at rate of 200 ml/m^2, as per label instructions.\n(§2) This test evaluated FeEDDS (0.4% Fe^+3) and FeHEDTA (0.2% Fe^+3) for controlling the weed hairy cat's ear (Hypochoeris radicata), also known as “false dandelion”, grown in areas of mixed grass and Hypochoeris. The iron solutions were sprayed at a rate of 100 ml/m^2 to 1.0 m^2 plots. The iron treatments were resprayed after 7 and 14 days. Killex (Solaris ON, Canada) was diluted and applied once as per label instructions of 6 ml /L applied at 200 ml/m^2."}, "[2]": {"test_system": "daisy (Bellis perennis)", "assay": "Example 11 field test, daisy in lawn", "format": "in vivo", "experimental": "as §1\n(§3) This test investigated the effect of FeHEDTA and a mixture of FeEDDS and FeMGDA on daisy (Bellis perennis), dandelion (Taraxacum officinale) and a turf bentgrass (Agrostis sp.). The chelating agents were used at one and a half times the molar amount of iron. The FeHEDTA solutions contained 0.2% iron (35.8 mM). The commercially prepared FeHEDTA product from the Monterey Chemical Company (CA, USA) was used as a standard. The (FeEDDS+FeMGDA) solutions contained 0.4% iron (71.6 mM) and the same molar amount of EDDS and MGDA. The solutions were made from NaEDDS (Octaquest E30, Octel) and NaMGDA (Trilon M liquid, BASF, Germany). Ammonium sulfate was added at a concentration of 1%. Killex (Solaris ON, Canada) was diluted and applied as per label instructions of 6 ml/L applied at 200 ml/m^2.\n(§4) The daisy (0.25 m^2) and dandelion (0.5 m^2) test plots were in different areas of the bentgrass field. The dandelions were large, averaging 30 cm in diameter. The daisy patches were between 10 and 20 cm in diameter. The plants were sprayed weekly 4 times."}, "[3]": {"test_system": "dandelion (Taraxacum officinale)", "assay": "Example 11 field test, dandelion in lawn", "format": "in vivo", "experimental": "as §1, §3, §4"}, "[4]": {"test_system": "dandelion", "assay": "Example 14 field dandelion test of iron chelates and 50:50 mixtures", "format": "in vivo, Taraxacum officinale", "design": "Surviving Dandelions (%): concentration or dose not given beside the values", "excerpt": "Solutions were made of FeHEDTA (0.2% Fe), FeEDTA (0.2% Fe), FeEDDS (0.4% Fe), and FeMGDA (0.4% Fe). For the combinations, these 4 solutions were mixed together in a 1:1 ratio. The plots (0.25 m^2) were sprayed 3 times at weekly intervals at a rate of 0.1 L/m^2. The plots contained a mixture of dandelion and hard fescue turfgrass."}, "[5]": {"test_system": "dandelions", "assay": "Example 10 FeHEDTA at 0.1% and 0.2% Fe on potted dandelions", "format": "in vivo, Taraxacum officinale", "experimental": "This test investigated using 0.1% (17.9 mM) and 0.2% (35.8 mM) iron, as FeHEDTA, to kill potted dandelions. The solutions contained 10% excess chelating agent.\nSmall (12 cm diameter) to medium (20 cm diameter) sized, greenhouse-grown dandelions were used. These sizes of dandelions are typically found in lawns. The plants were re-sprayed 7 days after the first spray."}, "[6]": {"test_system": "grass", "assay": "Example 13 field test, grass", "format": "in vivo", "experimental": "as §1, §2"}, "[7]": {"test_system": "dandelion (Taraxacum officinale)", "assay": "Example 12 FeHEDTA field test, dandelion", "format": "in vivo", "conditions": "for Survival of Dandelion Plants (%): day 7/day 0", "experimental": "This test evaluated FeHEDTA with 0.15% and 0.2% Fe for controlling the chickweed scarlet pimpernel (Anagallis arvensis) and dandelion (Taraxacum officinale). The solution contained 1.3 times the molar amount of chelating agent as iron. Field areas of well established chickweed and dandelion (0.5 m^2) were sprayed at a rate of 100 ml/m^2."}}, "data": [{"compound": "O=C([O-])CN(CCO)CCN(CC(=O)[O-])CC(=O)[O-].[Fe+3]", "note": "[FeHEDTA]", "values": [{"measurement": "Area Covered by Hairy Cat's Ear (%)", "setting": "[1]; day 0", "result": 65, "unit": "%"}, {"measurement": "Relative Cat's Ear Area (Start = 100%)", "setting": "[1]; day 0", "result": 100, "unit": "%"}, {"measurement": "Area Covered by Hairy Cat's Ear (%)", "setting": "[1]; day 6", "result": 20, "unit": "%"}, {"measurement": "Relative Cat's Ear Area (Start = 100%)", "setting": "[1]; day 6", "result": 31, "unit": "%"}, {"measurement": "Area Covered by Hairy Cat's Ear (%)", "setting": "[1]; day 8", "result": 20, "unit": "%"}, {"measurement": "Relative Cat's Ear Area (Start = 100%)", "setting": "[1]; day 8", "result": 31, "unit": "%"}, {"measurement": "Area Covered by Hairy Cat's Ear (%)", "setting": "[1]; day 14", "result": 5, "unit": "%"}, {"measurement": "Relative Cat's Ear Area (Start = 100%)", "setting": "[1]; day 15", "result": 8, "unit": "%"}, {"measurement": "Area Covered by Hairy Cat's Ear (%)", "setting": "[1]; day 18", "result": 0, "unit": "%"}, {"measurement": "Relative Cat's Ear Area (Start = 100%)", "setting": "[1]; day 18", "result": 0, "unit": "%"}, {"measurement": "Plot Area Covered by Daisy Plants (%)", "setting": "[2]; day 0 (start of test)", "result": 60, "unit": "%"}, {"measurement": "Daisy Necrosis (%)", "setting": "[2]; day 2", "result": 20, "unit": "%"}, {"measurement": "Daisy Necrosis (%)", "setting": "[2]; day 10", "result": 95, "unit": "%"}, {"measurement": "Plot Area Covered by Daisy Plants (%)", "setting": "[2]; day 13, sprayed weekly 4 times", "result": 1, "unit": "%"}, {"measurement": "Daisy Necrosis (%)", "setting": "[2]; day 16", "result": 98, "unit": "%"}, {"measurement": "Plot Area Covered by Daisy Plants (%)", "setting": "[2]; day 21", "result": 2, "unit": "%"}, {"measurement": "Daisy Necrosis (%)", "setting": "[2]; day 23", "result": 98, "unit": "%"}, {"measurement": "Plot Area Covered by Daisy Plants (%)", "setting": "[2]; day 30", "result": 0.5, "unit": "%"}, {"measurement": "Plot Area Covered by Dandelion Plants (%)", "setting": "[3]; day 0 (start of test)", "result": 80, "unit": "%"}, {"measurement": "Dandelion Necrosis (%)", "setting": "[3]; day 2", "result": 95, "unit": "%"}, {"measurement": "Dandelion Necrosis (%)", "setting": "[3]; day 9", "result": 98, "unit": "%"}, {"measurement": "Plot Area Covered by Dandelion Plants (%)", "setting": "[3]; day 13, sprayed weekly 4 times", "result": 5, "unit": "%"}, {"measurement": "Dandelion Necrosis (%)", "setting": "[3]; day 16", "result": 97, "unit": "%"}, {"measurement": "Plot Area Covered by Dandelion Plants (%)", "setting": "[3]; day 21", "result": 10, "unit": "%"}, {"measurement": "Dandelion Necrosis (%)", "setting": "[3]; day 23", "result": 97, "unit": "%"}, {"measurement": "Plot Area Covered by Dandelion Plants (%)", "setting": "[3]; day 26", "result": 8, "unit": "%"}, {"measurement": "Area Covered by Dandelion (%)", "setting": "[4]; day 0", "result": 40, "unit": "%"}, {"measurement": "Dandelion Count (#/0.25 m^2)", "setting": "[4]; day 0", "result": "63 #/0.25 m^2"}, {"measurement": "Dandelion Count (#/0.25 m^2)", "setting": "[4]; day 6", "result": "60 #/0.25 m^2"}, {"measurement": "Surviving Dandelions (%)", "setting": "[4]; day 6", "result": 95, "unit": "%"}, {"measurement": "Area Covered by Dandelion (%)", "setting": "[4]; day 6, sprayed 3 times at weekly intervals", "result": 20, "unit": "%"}, {"measurement": "Dandelion Necrosis (%)", "setting": "[4]; day 11", "result": 95, "unit": "%"}, {"measurement": "Dandelion Count (#/0.25 m^2)", "setting": "[4]; day 13", "result": "40 #/0.25 m^2"}, {"measurement": "Surviving Dandelions (%)", "setting": "[4]; day 13", "result": 63, "unit": "%"}, {"measurement": "Area Covered by Dandelion (%)", "setting": "[4]; day 15", "result": 8, "unit": "%"}, {"measurement": "Dandelion Necrosis (%)", "setting": "[4]; day 18", "result": 97, "unit": "%"}, {"measurement": "Area Covered by Dandelion (%)", "setting": "[4]; day 21", "result": 2, "unit": "%"}, {"measurement": "Dandelion Count (#/0.25 m^2)", "setting": "[4]; day 21", "result": "26 #/0.25 m^2"}, {"measurement": "Surviving Dandelions (%)", "setting": "[4]; day 21", "result": 41, "unit": "%"}, {"measurement": "Dandelion Necrosis (%)", "setting": "[4]; day 33", "result": 97, "unit": "%"}, {"measurement": "susceptibility of dandelions, in words", "setting": "[5]; 12 to 20 cm diameter dandelions", "result": "very susceptible"}, {"measurement": "Dead Dandelions (#/10)", "setting": "[5]; dandelion diameter 12 cm, 7 + 6 days (re-sprayed after 7 days)", "result": "10 #/10"}, {"measurement": "Dead Dandelions (#/10)", "setting": "[5]; dandelion diameter 12 cm, 6 days after spraying, listed as FeHEDTA (0.1% Fe)", "result": "2 #/10"}, {"measurement": "Dead Dandelions (#/10)", "setting": "[5]; dandelion diameter 12 cm, 6 days after spraying, listed as FeHEDTA (0.2% Fe)", "result": "8 #/10"}, {"measurement": "Dead Dandelions (#/10)", "setting": "[5]; dandelion diameter 16 cm, 7 + 6 days, listed as FeHEDTA (0.1% Fe)", "result": "3 #/10"}, {"measurement": "Dead Dandelions (#/10)", "setting": "[5]; dandelion diameter 16 cm, 7 + 6 days, listed as FeHEDTA (0.2% Fe)", "result": "10 #/10"}, {"measurement": "Dead Dandelions (#/10)", "setting": "[5]; dandelion diameter 16 cm, 6 days after spraying, listed as FeHEDTA (0.1% Fe)", "result": "1 #/10"}, {"measurement": "Dead Dandelions (#/10)", "setting": "[5]; dandelion diameter 16 cm, 6 days after spraying, listed as FeHEDTA (0.2% Fe)", "result": "3 #/10"}, {"measurement": "Dead Dandelions (#/10)", "setting": "[5]; dandelion diameter 20 cm, 7 + 6 days, listed as FeHEDTA (0.1% Fe)", "result": "3 #/10"}, {"measurement": "Dead Dandelions (#/10)", "setting": "[5]; dandelion diameter 20 cm, 7 + 6 days, listed as FeHEDTA (0.2% Fe)", "result": "8 #/10"}, {"measurement": "Dead Dandelions (#/10)", "setting": "[5]; dandelion diameter 20 cm, 6 days after spraying, listed as FeHEDTA (0.1% Fe)", "result": "0 #/10"}, {"measurement": "Dead Dandelions (#/10)", "setting": "[5]; dandelion diameter 20 cm, 6 days after spraying, listed as FeHEDTA (0.2% Fe)", "result": "1 #/10"}, {"measurement": "Area Covered by Hairy Grass (%)", "setting": "[6]; day 0", "result": 15, "unit": "%"}, {"measurement": "Relative Grass Area (Start = 100%)", "setting": "[6]; day 0", "result": 100, "unit": "%"}, {"measurement": "Area Covered by Hairy Grass (%)", "setting": "[6]; day 6", "result": 47, "unit": "%"}, {"measurement": "Relative Grass Area (Start = 100%)", "setting": "[6]; day 6", "result": 313, "unit": "%"}, {"measurement": "Area Covered by Hairy Grass (%)", "setting": "[6]; day 8", "result": 40, "unit": "%"}, {"measurement": "Relative Grass Area (Start = 100%)", "setting": "[6]; day 8", "result": 267, "unit": "%"}, {"measurement": "Area Covered by Hairy Grass (%)", "setting": "[6]; day 15", "result": 50, "unit": "%"}, {"measurement": "Relative Grass Area (Start = 100%)", "setting": "[6]; day 15", "result": 333, "unit": "%"}, {"measurement": "Area Covered by Hairy Grass (%)", "setting": "[6]; day 18", "result": 46, "unit": "%"}, {"measurement": "Relative Grass Area (Start = 100%)", "setting": "[6]; day 18", "result": 307, "unit": "%"}, {"measurement": "Dandelion Plants (#/0.5 m^2)", "setting": "[7]; 7 days after spraying, listed as FeHEDTA (0.15% Fe)", "result": "19 #/0.5 m^2"}, {"measurement": "Dandelion Plants (#/0.5 m^2)", "setting": "[7]; 7 days after spraying, listed as FeHEDTA (0.20% Fe)", "result": "24 #/0.5 m^2"}, {"measurement": "numbers of dandelions, in words", "setting": "[7]; Example 12, text", "result": "significantly reduced"}, {"measurement": "Dandelion Plants (#/0.5 m^2)", "setting": "[7]; day 0, listed as FeHEDTA (0.15% Fe)", "result": "57 #/0.5 m^2"}, {"measurement": "Dandelion Plants (#/0.5 m^2)", "setting": "[7]; day 0, listed as FeHEDTA (0.20% Fe)", "result": "84 #/0.5 m^2"}, {"measurement": "Survival of Dandelion Plants (%)", "setting": "[7]; listed as FeHEDTA (0.15% Fe)", "result": 33, "unit": "%"}, {"measurement": "Survival of Dandelion Plants (%)", "setting": "[7]; listed as FeHEDTA (0.20% Fe)", "result": 29, "unit": "%"}]}]}
